Results from paper PMC11815855, “Exploring the Structure–Activity Relationships of Albumin-Targeted Picoplatin-Based Platinum(IV) Prodrugs” (Inorganic Chemistry, 2025).
Marks after values point to notes of the source that are not given here.

Tests used:
[1] = Reduction with 10 equiv AA at pH 6.0 and 37 °C, UHPLC; format: physicochemical; conditions: 700 μM, 50 mM PB pH 6.0, 37 °C
Excerpt: (§1) To explain the rather unusual in vivo findings, especially with respect to Pico-Mal, we hypothesized that inefficient reductive release of the platinum(II) core from albumin due to steric hindrance of the 2-picoline could provide a plausible explanation for the lack of antitumor activity despite a favorable pharmacokinetic profile. […] To gain insights into whether the molecular weight and thus steric demands of the reducing agent impact the reduction of picoplatin(IV) derivatives, Pico-Succ and the reference complex Cis-Succ were analyzed in the presence of cytochrome C (CytC; ∼12,000 g/mol) or AA (176 g/mol). Therefore, Pico-Succ and Cis-Succ (for synthesis and ^1H NMR characterization, see experimental part and Scheme S1) were coincubated at pH 6.0 with 0.1 equiv CytC[60] and 10 equiv reduced NADH or with 10 equiv AA at 37 °C over 4 h, and the reduction kinetics were compared relatively. The amount of remaining intact platinum(IV) complex at given time points was measured via UHPLC (Figure 6). […]
(§2) PB (50 mM, pH 6.0) containing 700 μM Pt compound was incubated at 37 °C with the addition of 0.1 equiv horse heart CytC and 10 equiv reduced NADH or with 10 equiv L-ascorbic acid. The reaction was monitored on a Thermo Scientific Dionex UltiMate 3000 UHPLC-system using a Waters Acquity UPLC BEH peptide C18 1.7 μm 2.1 × 100 mm column. […]

horse heart CytC = biological target: T1, horse heart CytC (Equus caballus, UniProt P00004); test: Reduction with cytochrome C and NADH, UHPLC; format: biochemical; conditions: 700 μM, 0.1 equiv CytC and 10 equiv NADH, 50 mM PB pH 6.0, 37 °C
T1 construct: 0.1 equiv horse heart CytC; from tissue; host or cells: horse heart
T1 sequence (P00004 whole entry): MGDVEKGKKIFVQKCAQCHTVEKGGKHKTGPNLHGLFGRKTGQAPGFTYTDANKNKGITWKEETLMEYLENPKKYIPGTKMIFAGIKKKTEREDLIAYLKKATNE
Excerpt: as §1, §2

[2] = system: A2780/cis ovarian cancer cells; test: MTT-based cell viability assay, A2780/cis (cisplatin-resistant), 72 h; design: species or system human; conditions: for IC50: 72 h drug exposure, cisplatin-resistant subline, means of independent experiments; for IC50 / IC50 in A2780/cis compared to A2780/wt: MTT-based assay; for RF (resistance factor): fold-change between IC50 values of A2780/cis:A2780/wt; for RF (resistance factor) / IC50 in A2780/cis compared to A2780/wt: 72 h
Excerpt: (§3) For the cell culture assays, the human ovarian model A2780/wt and its corresponding cisplatin-resistant subline A2780/cis (both purchased from Sigma and cultured in RPMI1640 medium), the human colorectal cancer model HCT116 (cultured in McCoy′s medium), and the murine (Balb/c) colorectal cancer model CT26 (cultured in DMEM/F-12 (1:1) medium) were used. The colon cancer models were purchased from the American Type Culture Collection (ATCC). The media were supplemented with 10% FCS (purchased from PAA Linz, Austria). To maintain drug resistance of A2780/cis, the subline was cultivated under continuous selection pressure (1 μM cisplatin). The selection drug was removed 1 week before the experiments were performed. Cell cultures were maintained at 37 °C in humidified atmosphere containing 5% CO2. All cultures were free of antibiotics and regularly checked for mycoplasma contamination. All cell culture media and reagents were purchased from Sigma-Aldrich Austria. All investigated drugs were dissolved in either water (oxaliplatin, carboplatin) or DMF before further dilution in cell culture medium. DMF concentrations were always below 0.5%.
(§4) Subsequently, the cells were incubated with the tested compounds in rising concentrations. […] The received data were visualized as dose–response curves by Graph Pad Prism 5 software (Graph Pad software, USA).

[3] = system: A2780/wt ovarian cancer cells; test: MTT-based cell viability assay, A2780/wt, 72 h; design: species or system human; conditions: 72 h drug exposure, means of independent experiments
Excerpt: as §3, §4

[4] = Reduction kinetics of platinum(IV)-succinimide complexes with AA, UHPLC; format: physicochemical; conditions: 1 mM, 150 mM PB pH 7.4, 20 °C
Method: (§5) Platinum(IV) prodrugs need to be reduced in the tumor environment to release the cytotoxic platinum(II) complexes. Thus, the reduction properties of Pico-Succ, PicoCarbo-Succ, and PicoOxali-Succ were investigated. As mentioned above, succinimide complexes were used for these studies to avoid competitive hydrolysis of the maleimide moiety. All platinum(IV)-succinimide complexes were incubated in both the absence and presence of a 10-fold excess L-ascorbic acid (AA) in PB at pH 7.4 and 20 °C over 6 h. The amount of remaining intact platinum(IV) complex at given time points was measured via ultrahigh performance liquid chromatography (UHPLC), as shown in Figure 2. Pico-Succ was reduced extremely fast, with only traces of the original complex left in the first measurement after ∼5 min of incubation. Even with equimolar amounts of AA, 90% of Pico-Succ was already reduced after ∼5 min (Figure S6). This level of reductive instability is exceptionally high, even when compared to the “fast” reducing cisplatin(IV) prodrugs, which show a complete conversion after ∼10 h in the presence of 10 equiv AA.[41],[53]
(§6) PB (150 mM, pH 7.4) containing 1 mM Pt compound was incubated at 20 °C with and without the addition of 10 equiv L-ascorbic acid or reduced GSH. The reaction was monitored on a Thermo Scientific Dionex UltiMate 3000 UHPLC-system using a Waters Acquity UPLC BEH C18 1.7 μm, 3.0 × 50 mm column. Milli-Q water containing 0.1% formic acid and acetonitrile containing 0.1% formic acid were used as eluents. A gradient of 5–95% over 5 min was used with a flow of 0.6 mL/min. To evaluate the reaction process, we used the peak area of the parental complex.

[5] = system: HCT116 colon cancer cells; test: MTT-based cell viability assay, HCT116, 72 h; design: species or system human; conditions: 72 h drug exposure
Excerpt: as §3, §4

CT26 colon cancer cells [6] = test: MTT-based cell viability assay, CT26, 72 h; design: species or system murine; conditions: 72 h drug exposure
Excerpt: as §3, §4

[7] = system: HCT116 colon cancer cells; test: Colony formation (clonogenic) assay, HCT116, 7 days; format: cell-based, human; conditions: for IC50: 7 days drug exposure, clonogenic assay
Excerpt: as §3
(§7) Then, cells were exposed to the indicated drugs in rising concentrations. After 7 days, the cells were fixed with methanol for 20 min at 4 °C and stained with crystal violet 5 (0.01% in PBS). The fluorescence of the crystal violet was detected by the Typhoon scanner (Typhoon TRIO Variable Mode Imager, GE Healthcare Life Sciences) after excitation by the red laser (633 nm). Quantification was done with ImageJ software.

[8] = Reduction of platinum(IV)-succinimide complexes with 10 equiv GSH, UHPLC; format: physicochemical; conditions: 1 mM, 150 mM PB pH 7.4, 20 °C, 5 min
Excerpt: It is well-known that platinum(IV) complexes derived from, e.g., oxaliplatin or carboplatin, bearing leaving groups other than chlorido ligands, have distinctly slower reduction rates compared to cisplatin(IV) analogs.[54] This can be explained by a bridging interaction between the chlorido ligands and the reducing agent, which facilitates electron transfer to the platinum center.[55] […] The reductive behavior was also investigated in the presence of 10 equiv GSH in coherence with the above investigated interactions of platinum(II) with GSH (Figure S8).
as §6

CT26 colon cancer cells [9] = test: Colony formation (clonogenic) assay, CT26, 7 days; format: cell-based, murine; conditions: 7 days drug exposure
Excerpt: as §3, §7

albumin = albumin (Bos taurus, UniProt P02769); test: Albumin binding and stability in phosphate-buffered FCS, SEC-ICP-MS; conditions: 50 μM in FCS (150 mM PB, pH 7.4), 37 °C, 1 h
Chain of albumin (P02769 25-607): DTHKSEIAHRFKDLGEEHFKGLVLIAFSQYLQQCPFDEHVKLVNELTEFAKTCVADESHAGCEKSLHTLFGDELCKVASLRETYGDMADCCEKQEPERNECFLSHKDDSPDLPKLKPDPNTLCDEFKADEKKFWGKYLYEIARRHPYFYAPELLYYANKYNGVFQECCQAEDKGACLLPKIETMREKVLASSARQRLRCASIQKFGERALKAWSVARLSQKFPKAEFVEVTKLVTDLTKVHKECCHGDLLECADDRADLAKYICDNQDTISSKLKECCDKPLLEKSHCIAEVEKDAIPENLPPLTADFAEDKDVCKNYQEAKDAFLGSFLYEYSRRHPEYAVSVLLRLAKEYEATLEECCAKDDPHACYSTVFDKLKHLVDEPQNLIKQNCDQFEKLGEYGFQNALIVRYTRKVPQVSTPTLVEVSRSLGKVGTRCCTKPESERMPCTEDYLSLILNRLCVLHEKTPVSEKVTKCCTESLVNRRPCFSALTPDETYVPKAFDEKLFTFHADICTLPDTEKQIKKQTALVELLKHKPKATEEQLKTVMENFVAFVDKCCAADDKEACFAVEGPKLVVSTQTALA
Method: FCS was purchased from Sigma-Aldrich and buffered with 150 mM phosphate pH 7.4 in order to guarantee a stable pH. The platinum(IV) complexes were dissolved in 150 mM PB (pH 7.4) at a concentration of 5 mM and diluted 1:100 in buffered serum to obtain a final concentration of 50 μM. […] Between each sample, a pure water blank was measured. […] Oxygen (purity 5.5, Messer Austria GmbH, Gumpoldskirchen, Austria) was used as the reaction gas.

[10] = Hydrolytic stability of platinum(IV)-succinimide complexes in PB without AA, UHPLC; format: physicochemical; conditions: 1 mM, 150 mM PB pH 7.4, 20 °C
Method: as §5
PB (150 mM, pH 7.4) containing 1 mM Pt compound was incubated at 20 °C with and without the addition of 10 equiv L-ascorbic acid or reduced GSH. The reaction was monitored on a Thermo Scientific Dionex UltiMate 3000 UHPLC-system using a Waters Acquity UPLC BEH C18 1.7 μm, 3.0 × 50 mm column. […]

[11] = Stability of platinum(II) complexes in PBS or PB, NMR; format: physicochemical; conditions: 1 mM, pH 7.4, 37 °C, 8 h incubation, no GSH
Method: (§8) An 1 mM solution of Pt compound was incubated in a mixture of 90% PB or PBS (150 mM, pH 7.4) and 10% D2O at 37 °C with and without the addition of 10 equiv GSH. The reaction was monitored with ^1H or [^1H, ^15N] […] The reference spectrum was shifted with a value of −0.5 ppm compared to the original ppm value calibrated to D2O before overlay with a spectrum at a single time point. In case of ^15N-cisplatin, the cross-peak of the parental complex in [^1H, ^15N] HSQC at time point 0 h was used as reference, and spectral overlay was achieved by shifting the 2D spectra at all given time points (2, 4, 6, and 8 h) with vertical steps of +14 ppm compared to the original ^15N NMR ppm value of the parental complex.

[12] = Interaction of platinum(II) complexes with 10 equiv GSH, NMR; format: physicochemical; conditions: 1 mM complex, 10% D2O/90% PBS pH 7.4, 37 °C, 8 h, 1H NMR
Method: The amount of remaining platinum(II) complex was monitored via ^1H NMR spectroscopy and, particularly for ^15N-cisplatin, via [^1H, ^15N] heteronuclear single quantum coherence (HSQC) NMR spectroscopy (Figure 1).[47]
as §8

CT26 allografts [13] = conditions: carboplatin 60 mg/kg i.v. once a week for two weeks, Figure S11
Method: days after first treatment
Balb/c mice. Mice were treated i.v. with the maximal tolerated dose of the respective drug and compared
to the solvent control. […] Oxaliplatin (9
mg/kg) was applied twice a week for two weeks. Tumor volume data are presented as means ± SEM. The
overall survival is depicted via a Kaplan –Meier curve.

CT26 allografts [14] = conditions: oxaliplatin 9 mg/kg i.v. twice a week for two weeks, Figure S11 ref Schueffl et al, Chem. Sci. 2021, 12, 12587-12599; cited from earlier work

Row | Compound | IC50 [2] [µM] | RF (resistance factor) [2] | IC50 [3] [µM] | IC50 [5] [µM] | IC50 (CT26 colon cancer cells [6]) [µM] | IC50 [7] [µM] | IC50 (CT26 colon cancer cells [9]) [µM] | complex left in 10% D2O/90% PBS [11] | IC50 in A2780/cis compared to A2780/wt [2] [fold] | further results
1 | CC(=O)[O][Pt]([Cl])([Cl])[O]C(=O)NCCN1C(=O)CCC1=O.Cc1ccccn1.N [Pico-Succ, (OC-6-21)[Acetato(ammine)(dichlorido)(1-(2-isocyanatoethyl)pyrrolidine-2,5-dione)(2-methylpyridine)platinum(IV)]] | > 100 | >1.6 | 63.2 | > 100 | 77.8 | 32.1 | 30.9 | – | – | reduction with AA [1]: immediate reduction; time to complete reduction with CytC (horse heart CytC): 1 h; original complex left after ∼5 min with 10 equiv AA ([4]; 10 equiv AA, first measurement ∼5 min): only traces; complex reduced after ∼5 min with equimolar AA ([4]; equimolar AA, ∼5 min): 90%; reduction of IC50 values, 7 days vs 72 h ([7]; HCT116 and CT26, colony formation 7 days compared to MTT 72 h): 2–3 fold; original compound remaining after 5 min with 10 equiv GSH [8]: only traces; intact platinum(IV) complex left after 1 h in FCS (albumin): only traces; time stable in absence of AA [10]: over 6 h
2 | N.N.O=C([O-])C1(C(=O)[O-])CCC1.[Pt+2] [carboplatin] | 74.9 | 2.3**** | 32 | 63.2 | 22.1 | 7.41 | 4.37 | > 95% | 2.3 | intact platinum(II) complex left after 8 h with GSH [12]: ~60%; response of CT26 allografts to carboplatin (CT26 allografts [13]): highly carboplatin-resistant
3 | O=C1[O][Pt]2([NH][C@@H]3CCCC[C@H]3[NH]2)[O]C1=O [oxaliplatin] | 0.68 | 1.1^ns | 0.63 | 2.19 | 1.97 | 1.46 | 1.81 | readily degraded | 1.1 | response of CT26 allografts to oxaliplatin (CT26 allografts [14]): only moderately responsive; complex left in 10% D2O/90% PB [11]: > 90%
